Results on five compounds are retold here after the NIST ThermoML archive (doi:10.1016/j.tca.2016.02.008).

Numbers after ± are expanded uncertainties.

For series [1] the following is noted: for Normal melting temperature: DTA.
A short description of series [2]: Molar enthalpy of transition or fusion. Conditions: DSC.

For the compound `CCCCCCCCCCCCCCCC(=O)O` [hexadecanoic acid], the Normal melting temperature in series [1] (Crystal) was 63.10 ± 0.4 °C. For the same compound, the “Molar enthalpy of transition or fusion” value in series [2] (Crystal) was 12.9 ± 0.645 kcal/mol.

Consider `CCCCC/C=C\C/C=C\CCCCCCCC(=O)O` [(Z,Z)-9,12-octadecadienoic acid], for which the Normal melting temperature in series [1] (Crystal) is -5.40 ± 0.4 °C. Further, the “Molar enthalpy of transition or fusion” value in series [2] (Crystal) was 7.46 ± 0.382 kcal/mol.

For `CCCCCCCC/C=C\CCCCCCCC(=O)O` [(Z)-9-octadecenoic acid], the Normal melting temperature in series [1] (Crystal 1) stood at 13.70 ± 0.4 °C. In series [1] (Crystal 2, DSC), the Triple point temperature was 268.95 ± 0.8 K. Besides, the figures for the “Molar enthalpy of transition or fusion” value in series [2] (Crystal 1) and in series [2] (Crystal 2) were 8.99 ± 0.454 kcal/mol and 1.87 ± 0.1 kcal/mol, respectively.

Regarding `CC/C=C\C/C=C\C/C=C\CCCCCCCC(=O)O` [all-cis-9,12,15-octadecatrienoic acid], the Normal melting temperature in series [1] (Crystal) is -10.90 ± 0.4 °C. Besides, the “Molar enthalpy of transition or fusion” value in series [2] (Crystal) worked out at 6.99 ± 0.359 kcal/mol.

Consider `CCCCCCCCCCCCCCCCCC(=O)O` [octadecanoic acid], for which the Normal melting temperature in series [1] (Crystal) turned out to be 70.60 ± 0.4 °C. In series [2] (Crystal), the “Molar enthalpy of transition or fusion” value worked out at 15.1 ± 0.741 kcal/mol.
